According to PMC6397092 (Platelets, 2018):

Biological target: T1, PAR4 (protease-activated receptor 4) (Homo sapiens, UniProt Q96RI0)
T1 sequence (Q96RI0 48-385): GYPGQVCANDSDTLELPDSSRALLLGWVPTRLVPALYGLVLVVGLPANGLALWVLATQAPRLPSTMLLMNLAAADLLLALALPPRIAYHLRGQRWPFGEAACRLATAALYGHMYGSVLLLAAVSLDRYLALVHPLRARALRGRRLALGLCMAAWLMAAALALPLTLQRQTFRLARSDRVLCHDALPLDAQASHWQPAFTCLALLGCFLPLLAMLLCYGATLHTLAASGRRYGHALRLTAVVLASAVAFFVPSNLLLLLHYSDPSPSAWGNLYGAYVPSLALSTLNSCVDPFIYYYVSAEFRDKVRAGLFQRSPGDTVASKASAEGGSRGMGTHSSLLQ
Experiment: inhibition of human platelet activation by […] gamma-thrombin
Format: cell-based

Substance VU0661245 has an IC50 of 8.42 nM.
